Here are results for eight molecules from patent US20110020362A1, “Adrenergic stimulation mediates hypersensitivity by inducing nerve growth factor expression” (priority 2009, published 2011).

Series [1] has as its system TL colon dorsal root ganglia neurons. As to the kind of experiment: Patch-clamp electrophysiology of DiI-labeled colon-specific TL dorsal root ganglia neurons from treated rats. The series is classed as in vivo, rat. As to the method: The lipid soluble fluorescent dye 1,1′dioleyl-3,3,3′,3′-tetramethylindocarbocyanine methanesulfonate (DiI-I), 25 mg in 0.5 mL methanol, was injected in 2 μL volumes at eight to ten sites in distal colon wall starting at the pelvic girdle and moving toward the cecum. TL dorsal root ganglia neurons were isolated from dorsal root ganglia T13, L1 and L2 were dissected out and put in an ice-cold, oxygenated dissecting solution, containing (in mM): 130 NaCI, 5 KCI, 2 KH2PO4, 1.5 CaCl2, 6 MgSO4, glucose, and 10 HEPES, pH 7.2 (osmolarity, 305 mOsm), as described (10). Connective tissue free ganglia were transferred to a 10 ml dissecting solution containing collagenase D (1.8 mg/mL, Roche) and trypsin (1.0 mg/mL; Sigma, St. Louis, Mo.), and incubated for 1.5 hours at 34.5° C. DRGs are then taken from the enzyme solution, washed, and put in 2 mL of the dissecting solution containing DNase (0.5 mg/mL; Sigma). Cells were subsequently dissociated by trituration with fire-polished glass pipettes and placed on acid-cleaned glass cover slips. Dorsal root ganglia neurons containing the retrograde label were identified as bright red neurons using fluorescent microscopy with a rhodamine filter (excitation 546, barrier filter at 580) and Hoffman contrast optics. For current clamp experiment, cells were superfused (1.5 mL/min) at room temperature with control external solution containing (in mM): 130 NaCI, 5 KCI, 2 KH2PO4, 2.5 CaCl2, 1 MgCl2, 10 HEPES, and 10 glucose, pH adjusted to 7.4 with NaOH (295-300 mOsm). Recording pipettes pulled from borosilicate glass tubing had resistance of 1-4 MΩ. For perforated patch recording, pipette tip was initially filled with amphotericin-free pipette solution, containing (in mM): 100 KmeSO3, 40 KCI, and 10 HEPES, pH 7.25 adjusted with KOH (osmolarity, 290 mOsm). The pipette was then backfilled with same pipette solution containing amphotericin B (300 μg/ml). Whole cell currents and voltage were recorded with Dagan 3911 patch clamp amplifier; and data were acquired and analyzed by pCLAMP 9.2 (Axon Instruments). The currents were filtered at 2-5 kHz and sampled at 50 or 100 μsec per point.
(§1) A catheter (ReCathco) was inserted through the occipital membrane onto the top of the spinal cord. The end of the catheter rested at about L1. After measurement of baseline response to colorectal distension, the catheter was primed with the appropriate solution and connected to subcutaneously implanted osmotic pump (Durect Corporation, Cupertino, Calif.) filled with appropriate solution. The pump delivered a constant infusion of 0.93 μL/hour for 10.6 days. K252a, a non-specific antagonist of tyrosine kinase receptors (trk) including the high affinity trkA receptors (11), was dissolved in DMSO and administered in sterile saline containing 10% DMSO at a concentration of 0.067 mg/mL. Each rat received an initial bolus infusion of 0.67 μg followed by 1.5 μg/day from the osmotic pump. Previously validated anti-sense and missense oligonucleotides were used (12), TrkA antisense: […] (SEQ ID NO: 1) and mismatch: […] (SEQ ID NO: 2). Oligos were HPLC purified and purchased from Invitrogen. Rats received an initial bolus dose of 10 nmole in 10 uL. The catheter was attached to the pump, which delivered oligo at a rate of 0.5 nmole/hour. Stress protocol started 24-hours after attachment of the pump. Nerve growth factor neutralizing antibody (16 μg/kg i.p. in 0.5) was purchased from R&D systems (Minneapolis, Minn.) and reconstituted in phosphate buffered saline (PBS). Control rats received PBS containing an equal concentration of goat non-immune serum.
A general note: Patch clamp records ionic current or voltage across a cell membrane.

The subject of series [2] is rats subjected to heterotypic chronic stress. As to the kind of experiment: Viscero-motor response (VMR) to graded colorectal distension after nine-day heterotypic chronic stress. As to conditions: for heterotypic chronic stress-induced increase in viscero-motor response to colorectal distension: entire nine-day HeCS, post-HeCS vs baseline. It counts as in vivo, rat. As to the method:
Two electrodes were implanted under general 2% isofluorane anesthesia in the external oblique abdominal muscle and exteriorized in the subscapular region. Rats were allowed one week to recover from surgery. Under 2% isofluoruthane anesthesia, a 5 cm long balloon constructed from a surgical glove finger and attached to tygon tubing was inserted 7 cm into the descending colon and rectum. Rats were placed in small Lucite cubicles (20×8×8 cm) and allowed to adapt for 30 minutes. colorectal distension was performed by rapidly inflating the balloon to constant pressures: 20, 30, 40, 50, 60 & 80 mm Hg, for 20 seconds followed by 2-minute rest. Electromygraphic (EMG) activity from the external oblique muscle was recorded on Biopac equipment (Biopac Systmes, Inc., Santa Barbara, Calif.). The EMG signal was amplified, filtered at 300 Hz and digitized. The area under the curve (AUC) for the EMG signal during each 20 seconds of distention was calculated using Acknowledge software (Biopac Systmes, Inc). The net value for each distension period was calculated by subtracting the baseline value derived from the average AUC for 20 seconds before and 20 seconds after the distention period.
as §1

Series [3] concerns mucosal afferent mechanoreceptors. To be noted: IBS patients; cited from earlier work.
Series [4] has as its system nerve growth factor. As to the kind of experiment: Nerve growth factor expression in distal colon tissue strips incubated in vitro with norepinephrine. The series is classed as cell-based, rat.
Procedure: The distal colon, about 6 cm long was opened along the mesentery and dissected free of mucosa/submucosa and submucosal plexus. Tissues were either snap frozen in liquid nitrogen or washed in Hanks balanced salt solution and incubated in DME+10% fetal calf serum+penicillin/streptomycin containing norepinephrine for 24-hours. Tissue was homogenized in PBS+protease inhibitor cocktail purchased from Sigma and centrifuged at 13,000 g for 10 minutes. Nerve growth factor protein was measured by ELISA from R&D Systems (Minneapolis, Minn.).
The test system of series [5] is TL colon dorsal root ganglia neurons. As to the kind of experiment: Electrophysiology of TL colon dorsal root ganglia neurons incubated in vitro with nerve growth factor. The series is classed as cell-based, rat. To be noted: 24 hours in vitro, high (250 ng/mL) vs low (2.5 ng/mL). As to the method: The lipid soluble fluorescent dye 1,1′dioleyl-3,3,3′,3′-tetramethylindocarbocyanine methanesulfonate (DiI-I), 25 mg in 0.5 mL methanol, was injected in 2 μL volumes at eight to ten sites in distal colon wall starting at the pelvic girdle and moving toward the cecum. TL dorsal root ganglia neurons were isolated from dorsal root ganglia T13, L1 and L2 were dissected out and put in an ice-cold, oxygenated dissecting solution, containing (in mM): 130 NaCI, 5 KCI, 2 KH2PO4, 1.5 CaCl2, 6 MgSO4, glucose, and 10 HEPES, pH 7.2 (osmolarity, 305 mOsm), as described (10). Connective tissue free ganglia were transferred to a 10 ml dissecting solution containing collagenase D (1.8 mg/mL, Roche) and trypsin (1.0 mg/mL; Sigma, St. Louis, Mo.), and incubated for 1.5 hours at 34.5° C. DRGs are then taken from the enzyme solution, washed, and put in 2 mL of the dissecting solution containing DNase (0.5 mg/mL; Sigma). Cells were subsequently dissociated by trituration with fire-polished glass pipettes and placed on acid-cleaned glass cover slips. […] Whole cell currents and voltage were recorded with Dagan 3911 patch clamp amplifier; and data were acquired and analyzed by pCLAMP 9.2 (Axon Instruments). […]

For series [6] the following is noted: exogenous administration; cited from earlier work.
In series [7] the test system is trkA. As to the kind of experiment: Western blot of trkA expression in dorsal root ganglia after intrathecal oligonucleotide. It counts as in vivo, rat. As to the method:
as §1

The mark [8] stands for this setting: HeCS rats, intrathecal application.
Where [9] appears, read: in vitro incubation for 24 hours.
Setting [10] is: HeCS rats, 200 μg/kg intraluminal in distal colon one day before HeCS.
The mark [11] stands for this setting: sham stressed rats, 200 μg/kg intraluminal in distal colon.
Setting [12] is: intrathecal oligonucleotide, bolus 10 nmole then 0.5 nmole/hour.

Entries after “also recorded” stand apart in the source; their conditions may differ.

Regarding `COC(=O)[C@@]1(O)C[C@H]2O[C@]1(C)n1c3ccccc3c3c4c(c5c6ccccc6n2c5c31)C(=O)NC4` [k252a, K252a], in series [1] (setting [8]), the “HeCS-induced decrease in rheobase” value is given as “significantly attenuated”, the “HeCS-induced depolarization of resting membrane potential” value is “significantly attenuated” and the “HeCS-induced increase in the number of action potentials at 2× rheobase” value was “significantly attenuated”. In addition, the “HeCS-induced increase in excitability of TL colon dorsal root ganglia neurons” value in series [1] (HeCS rats, intrathecal treatment) is “blocked”. Besides, the “heterotypic chronic stress-induced increase in viscero-motor response to colorectal distension” value in series [2] (intrathecal osmotic pump, bolus 0.67 μg then 1.5 μg/day) is listed as “no significant difference”. For the same molecule, the “heterotypic chronic stress-induced increase in viscero-motor response to colorectal distension” value in series [2] (intrathecal osmotic pump, bolus 0.67 μg then 1.5 μg/day, listed as k252A) is on record as “suppressed”.

On to `CCN(CC)CC(=O)Nc1c(C)cccc1C` [lidocaine], for which, in series [3], the “pain-perception to rapid balloon distension” value is “does not affect” and the “sensory perception to slow distension” value is recorded as “blocks”.

On to `NC[C@H](O)c1ccc(O)c(O)c1` [norepinephrine], for which, in series [4] (setting [9]), the “expression of nerve growth factor in mucosa/submucosa” value is reported as “concentration-dependently increased” and the “expression of nerve growth factor in muscularis externa/serosa” value is listed as “concentration-dependently increased”.

As for `C=C(C)[C@]12C[C@@H](C)[C@@]34O[C@](Cc5ccccc5)(O[C@@H]1[C@@H]3C=C(COC(=O)Cc1ccc(O)c(OC)c1)C[C@]1(O)C(=O)C(C)=C[C@@H]41)O2` [resiniferatoxin], in series [1] (setting [10]), the “HeCS-induced increase in the number of action potentials at 2× rheobase” value is given as “significantly blocked” and the “HeCS-induced reduction in rheobase” value is recorded as “significantly blocked”. Besides, in series [1] (setting [11]), the resting membrane potential result is listed as “no significant effect” and the rheobase entry was “no significant effect”. For the same molecule, in series [2] (desensitization of afferent nerve endings, 200 μg/kg intraluminal in distal colon one day before HeCS), the “induction of visceral hypersensitivity to colorectal distension” value is “blocked the induction of visceral hypersensitivity”.

On to “MM oligonucleotide: mismatch control oligonucleotide: CAACATCGAAGTGACGAGACCG (SEQ ID NO: 2) (listed as DNA, chemistry not given here)”, for which the “heterotypic chronic stress-induced increase in viscero-motor response to colorectal distension” value in series [2] (setting [12]) was “significant increase”.

As for astressin, in series [4] (in vitro, with norepinephrine), the “norepinephrine-induced expression of nerve growth factor in mucosa/submucosa” value is given as “blocked this increase; also recorded: blocked this effect” and the “norepinephrine-induced expression of nerve growth factor in muscularis externa/serosa” value is reported as “had no effect; also recorded: no significant effect”.

Take “nerve growth factor: neurotrophin, nerve growth factor (NGF), applied to neurons in vitro at 250 or 2.5 ng/mL”: in series [5], the resting membrane potential result is “significant decline” and the rheobase entry was “significant decline”. In addition, the inflammatory hyperalgesia entry in series [6] is reported as “mimics inflammatory hyperalgesia”.

With “trkA AS oligonucleotide: TrkA antisense: CATCAACGAAGTCACCAGACCG (SEQ ID NO: 1), previously validated, HPLC purified, from Invitrogen (listed as DNA, chemistry not given here)”, the “expression of trkA in TL dorsal root ganglia, relative to rats treated with MM oligonucleotide” value in series [7] (intrathecal, catheter tip at about L1) was “about 50%”. The “trkA levels in LS DRG” value in series [7] (several segments caudal to the catheter tip, vs MM oligonucleotide) is given as “No significant difference”. In addition, the “trkA levels in thoracic dorsal root ganglion” value in series [7] (several segments rostral to the catheter tip, vs MM oligonucleotide) is given as “No significant difference”. Moreover, the “heterotypic chronic stress-induced increase in viscero-motor response to colorectal distension” value is given as “no significant difference” in series [2] (setting [12]) and “suppressed” in series [2] (intrathecal oligonucleotide, bolus 10 nmole then 0.5 nmole/hour, listed as anti-sense ODN).
